Laboratory results from patent US20230160878A1, “METHOD OF SCREENING A THERAPY FOR INDUCTION OF FERROPTOSIS” (priority 2020, published 2023).

Tests used:
[1] = tested on: HMOX1; assay: RT-qPCR of HMOX1 expression in HT-1080 cells; type: cell-based; conditions: for HMOX1 induction with versus without ferrostatin-1: HT-1080, sodium arsenite 80 μM, hemin 5 μM, RSL3 1 μM, with or without 1 μM ferrostatin-1, four hours, normalized to DMSO
Experimental: (§1) To confirm HMOX1 induction by the GPX4 inhibitors, an RT-qPCR assay was performed using three ferroptosis sensitive cancer cell lines: the fibrosarcoma cell line HT-1080, a Ewing's sarcoma cell line A673, and a renal clear cell carcinoma cell line 786-O. Briefly, cells were exposed to 1 μM ML162 or 1 μM RSL3 for 4 hours, RNA was isolated and an RT-qPCR assay was performed.
To further validate induction of HMOX1 mRNA expression by GPX4 inhibition, RT-qPCR was performed using varying doses of the RSL3 inhibitor. Briefly, HT-1080 cells were exposed to 5 μM RSL3, 1 μM RSL3, and 0.2 μM RSL3 for four hours, RNA was isolated and an RT-qPCR assay was performed to quantify HMOX1 expression. DMSO was used as a control exposure.
(§2) Briefly, HT-1080, A673, and 786-O cells were exposed to 1 μM ML162 or 1 μM RLS3 with or without 1 μM ferrostatin-1 for four hours, RNA was isolated and an RT-qPCR assay was performed to quantify HMOX1 expression. DMSO was used as a control exposure.
Sodium arsenite and hemin are known to be inducers of general oxidative stress in cells. Briefly, HT-1080 cells were exposed to sodium arsenite (80 μM), hemin (5 μM), ML162 (1 μM), or RSL3 (1 μM) with or without 1 μM ferrostatin-1 for four hours, RNA was isolated and an RT-qPCR assay was performed to quantify HMOX1 expression. DMSO was used as a control exposure.

[2] = tested on: HMOX1; assay: RT-qPCR of HMOX1 expression in A673 cells; type: cell-based; conditions: A673, 1 μM; for relative expression of HMOX1 in absence of ferrostatin-1: four hours, relative to ACTB
Experimental: as §1, §2

[3] = tested on: HMOX1; assay: RT-qPCR of HMOX1 expression in 786-O cells; type: cell-based; conditions: 1 μM; for relative expression of HMOX1 in absence of ferrostatin-1: four hours, relative to ACTB
Experimental: as §1, §2

[4] = tested on: HMOX1; assay: nascent RNA sequencing, transcriptional response to GPX4 inhibitors, HT-1080; type: cell-based; conditions: HT-1080, 1 μM, 1 hour
Experimental: (§3) To assess the transcriptional response of a cell to inhibition of GPX4, we exposed two cell lines to two different chemical inhibitors of GPX4 (ML162 and RSL3; available from Sigma Aldrich and Apex Bio respectively) and examined the transcriptional responses using a nascent RNA sequencing protocol. Briefly, a fibrosarcoma cell line HT-1080 and a lung fibroblast cell line IMR90 were exposed to 1 μM ML162 or 1 μM RSL3 for 1 hour and the nascent RNA sequencing protocol was performed.

[5] = tested on: HMOX1; assay: nascent RNA sequencing, transcriptional response to GPX4 inhibitors, IMR90; type: cell-based; conditions: IMR90, 1 μM, 1 hour
Experimental: as §3

[6] = tested on: HT-1080, A673, and 786-O cells lines; conditions: ferrostatin-1 added to culture media; HT-1080, A673, 786-O; cited from earlier work
[7] = tested on: HMOX1; assay: RT-qPCR rescue of GPX4 inhibitor-mediated HMOX1 induction by ferrostatin-1 (HT-1080, A673 and 786-O pooled statement); type: cell-based; conditions: 1 μM ferrostatin-1 with 1 μM ML162 or RSL3, HT-1080, A673, 786-O, four hours
Experimental: as §2

[8] = HT-1080, 1 μM, four hours, relative to ACTB
[9] = 4 hours, normalized to DMSO control, n=2

Compound	HMOX1 induction with versus without ferrostatin-1 [1]	relative expression of HMOX1 in absence of ferrostatin-1 [2]	relative expression of HMOX1 in absence of ferrostatin-1 [1, 8]	relative expression of HMOX1 in absence of ferrostatin-1 [3]	HMOX1 differential expression (nascent transcription) [4]	HMOX1 differential expression (nascent transcription) [5]	further results
O=[As]O [sodium arsenite]	not affected by the presence of ferrostatin-1	–	–	–	–	–	–
COc1ccc(N(C(=O)CCl)C(C(=O)NCCc2ccccc2)c2cccs2)cc1Cl (centres unmarked) [ML162]	–	HMOX1 expression was observed	HMOX1 expression was observed	HMOX1 expression was observed	strongly differentially expressed	strongly differentially expressed	relative expression of HMOX1 in presence of ferrostatin-1 ([1]; HT-1080, 1 μM with 1 μM ferrostatin-1, four hours, relative to ACTB): induced HMOX1 even in the presence of ferrostatin-1
hemin	not affected by the presence of ferrostatin-1	–	–	–	–	–	–
COC(=O)c1ccc([C@@H]2c3[nH]c4ccccc4c3C[C@@H](C(=O)OC)N2C(=O)CCl)cc1 [RSL3]	dependent on lipid peroxidation	HMOX1 expression was observed	HMOX1 expression was observed	HMOX1 expression was observed	strongly differentially expressed	strongly differentially expressed	fold induction for HMOX1 mRNA [2, 9]: induced; fold induction for HMOX1 mRNA ([1]; HT-1080, 1 μM, 4 hours, normalized to DMSO control, n=2): induced; relative expression level of HMOX1, dose dependence ([1]; HT-1080, 5 μM, 1 μM and 0.2 μM, four hours, relative to ACTB): proportional to the dose; fold induction for HMOX1 mRNA [3, 9]: induced
CCOC(=O)c1ccc(NC2CCCCC2)c(N)c1 [ferrostatin-1]	–	–	–	–	–	–	cellular viability of cells treated with small molecules that induce lipid peroxidation [6]: rescues cellular viability; effect of ferrostatin-1 on HMOX1 induction by GPX4 inhibitors [7]: sufficient to prevent induction of HMOX1 in most conditions
